Assay results: ChEMBL document CHEMBL1201862, “PubChem BioAssay data set” (2004)
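Step 1: Grow cells in 96-well plates. Step 2: Expose to compound for 48 hours at 5 concentrations. Step 3: Interpolate endpoints linearly; if unreached, use highest concentration. At the GI50, growth is halved.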 The source made the active and inactive calls. No stated cut-off is given here; in the data, active = GI50 up to about 1.1 µM and inactive = higher.

Legend:
Assay in all cases: inhibition of tumour cell growth, NCI panel, 48 h
[1] = test system: CAKI-1
[2] = test system: NCI-H23
[3] = test system: UO-31
[4] = test system: CCRF-CEM
[5] = test system: HL-60
[6] = test system: ACHN
[7] = test system: MCF7
[8] = test system: HCC 2998
[9] = test system: EKVX
[10] = test system: COLO 205
[11] = test system: SW-620
[12] = test system: MDA-MB-435
[13] = test system: OVCAR-3
[14] = test system: UACC-62
[15] = test system: NCI/ADR-RES
[16] = test system: K562
[17] = test system: SK-MEL-2
[18] = test system: HCT-15
[19] = test system: RXF 393
[20] = test system: Hs-578T

SMILES | GI50 [1] | GI50 [2] | GI50 [3] | GI50 [4] | GI50 [5] | GI50 [6] | GI50 [7] | GI50 [8] | GI50 [9] | GI50 [10] | GI50 [11] | GI50 [12] | GI50 [13] | GI50 [14] | GI50 [15] | GI50 [16] | GI50 [17] | GI50 [18] [µM] | GI50 [19] | GI50 [20]
CC1(C)OC[C@@H]([C@H](O)C2C=CC(=O)S2)O1 (stereo partly drawn) | 28.1 µM (inactive) | 26.4 µM (inactive) | 20.8 µM (inactive) | 24.1 µM (inactive) | 8.73 µM (inactive) | 19.2 µM (inactive) | 30.2 µM (inactive) | 16.6 µM (inactive) | 31 µM (inactive) | 17.9 µM (inactive) | 32 µM (inactive) | 37.8 µM (inactive) | 50.5 µM (inactive) | 14.6 µM (inactive) | 21.5 µM (inactive) | 25.4 µM (inactive) | 20.3 µM (inactive) | 19.8 | 15 µM (inactive) | –
N#C/C(=C\c1cc(Br)c(O)c(Br)c1)c1ccccn1 | > 100 µM (inactive) | 44 µM (inactive) | 35.9 µM (inactive) | 34.1 µM (inactive) | > 100 µM (inactive) | 90.6 µM (inactive) | 89.3 µM (inactive) | 42.9 µM (inactive) | 26.7 µM (inactive) | 52.4 µM (inactive) | 63.5 µM (inactive) | – | 49.3 µM (inactive) | 37.1 µM (inactive) | 43 µM (inactive) | 34.6 µM (inactive) | 47.9 µM (inactive) | 41.2 | 91.4 µM (inactive) | –
CC1(C)C(=O)C=CC2(C)C1CC(O)C1(C)C2CCC2(C)C(c3ccoc3)OC(=O)C3OC321 (stereo not drawn) | 11.7 µM (inactive) | 12.1 µM (inactive) | 11.4 µM (inactive) | 23.1 µM (inactive) | – | 14.1 µM (inactive) | 28.8 µM (inactive) | 13.4 µM (inactive) | 12.5 µM (inactive) | 21.5 µM (inactive) | 19.8 µM (inactive) | 23.7 µM (inactive) | 13.9 µM (inactive) | 12.6 µM (inactive) | 14.4 µM (inactive) | 24.8 µM (inactive) | 11.8 µM (inactive) | 10.6 | 15 µM (inactive) | –
O=C(c1cccc2ccccc12)C1S(=O)(=O)OCCOS1(=O)=O | > 100 µM (inactive) | > 100 µM (inactive) | > 100 µM (inactive) | > 100 µM (inactive) | > 100 µM (inactive) | > 100 µM (inactive) | > 100 µM (inactive) | > 100 µM (inactive) | > 100 µM (inactive) | > 100 µM (inactive) | – | > 10 µM (inactive) | > 100 µM (inactive) | – | > 100 µM (inactive) | > 100 µM (inactive) | > 100 µM (inactive) | > 100 | – | –
O=C(c1ccccc1)C1N=NN(Cc2ccccc2[N+](=O)[O-])C1C(=O)c1ccccc1 (stereo not drawn) | > 100 µM (inactive) | > 100 µM (inactive) | > 100 µM (inactive) | > 100 µM (inactive) | > 100 µM (inactive) | > 100 µM (inactive) | – | 96.8 µM (inactive) | > 100 µM (inactive) | 34.5 µM (inactive) | > 100 µM (inactive) | – | > 100 µM (inactive) | > 100 µM (inactive) | – | > 100 µM (inactive) | > 100 µM (inactive) | > 100 | > 100 µM (inactive) | –
O=c1[nH]nc(Cc2ccc(Cl)cc2)n1/N=C/c1cccs1 | 36.5 µM (inactive) | 24.9 µM (inactive) | 46.2 µM (inactive) | > 100 µM (inactive) | > 100 µM (inactive) | 75.7 µM (inactive) | 44.3 µM (inactive) | > 100 µM (inactive) | 23 µM (inactive) | > 100 µM (inactive) | > 100 µM (inactive) | > 100 µM (inactive) | > 100 µM (inactive) | > 100 µM (inactive) | 50.5 µM (inactive) | > 100 µM (inactive) | 22.4 µM (inactive) | > 100 | 15.5 µM (inactive) | –
C[C@@H]1CC(=O)C[C@@H]2CC[C@H]3[C@@H]4CC[C@H](OC(=O)c5cccc6cc7ccccc7nc56)[C@H]4CC[C@@H]3[C@H]21 | 17.4 µM (inactive) | 14.7 µM (inactive) | 16.9 µM (inactive) | – | – | 15.7 µM (inactive) | – | – | 16.7 µM (inactive) | 22.2 µM (inactive) | 17.4 µM (inactive) | 15.8 µM (inactive) | 15.2 µM (inactive) | 13.3 µM (inactive) | 20.9 µM (inactive) | 8 µM (inactive) | 17.1 µM (inactive) | 14.2 | 18.1 µM (inactive) | 21.6 µM (inactive)
[O-][S+](CCCl)c1c2ccccc2nc2ccccc12 (stereo not drawn) | 14.8 µM (inactive) | 75 µM (inactive) | > 100 µM (inactive) | 21.3 µM (inactive) | 29.4 µM (inactive) | > 100 µM (inactive) | 28.2 µM (inactive) | > 100 µM (inactive) | > 100 µM (inactive) | 36.9 µM (inactive) | 11.3 µM (inactive) | 84.9 µM (inactive) | > 100 µM (inactive) | > 100 µM (inactive) | > 100 µM (inactive) | > 100 µM (inactive) | > 100 µM (inactive) | > 100 | > 100 µM (inactive) | –
Cc1ccc(S(=O)(=O)OCC(=O)O)cc1 | > 100 µM (inactive) | > 100 µM (inactive) | > 100 µM (inactive) | > 100 µM (inactive) | > 100 µM (inactive) | > 100 µM (inactive) | – | – | > 100 µM (inactive) | – | > 100 µM (inactive) | – | > 100 µM (inactive) | > 100 µM (inactive) | > 100 µM (inactive) | > 100 µM (inactive) | > 100 µM (inactive) | > 100 | > 100 µM (inactive) | > 100 µM (inactive)
O=c1s[s+]([O-])c2ccccc12 (stereo not drawn) | > 100 µM (inactive) | > 100 µM (inactive) | > 100 µM (inactive) | 61.4 µM (inactive) | 46.9 µM (inactive) | > 100 µM (inactive) | > 100 µM (inactive) | > 100 µM (inactive) | > 100 µM (inactive) | > 100 µM (inactive) | > 100 µM (inactive) | > 100 µM (inactive) | > 100 µM (inactive) | > 100 µM (inactive) | > 100 µM (inactive) | 45.7 µM (inactive) | > 100 µM (inactive) | 72.9 | – | –
COc1cc(NC(C)=O)ccc1C(=O)NN1C(=O)C(Cl)C1c1ccco1 (stereo not drawn) | 88.9 µM (inactive) | > 100 µM (inactive) | > 100 µM (inactive) | 65.3 µM (inactive) | 41.7 µM (inactive) | 86.3 µM (inactive) | 58.3 µM (inactive) | – | > 100 µM (inactive) | 61.8 µM (inactive) | > 100 µM (inactive) | > 100 µM (inactive) | > 100 µM (inactive) | > 100 µM (inactive) | > 100 µM (inactive) | > 100 µM (inactive) | > 100 µM (inactive) | > 100 | > 100 µM (inactive) | –
N#CC1=C(Cl)NC(Cl)=C(C#N)C1c1ccc(Cl)cc1 | 17.9 µM (inactive) | 17.9 µM (inactive) | 17 µM (inactive) | 25 µM (inactive) | 18.5 µM (inactive) | 17.7 µM (inactive) | – | 19.1 µM (inactive) | 19.5 µM (inactive) | 16.5 µM (inactive) | 13.5 µM (inactive) | – | 14 µM (inactive) | 16.7 µM (inactive) | – | 11.9 µM (inactive) | 13.9 µM (inactive) | 15.4 | 17.1 µM (inactive) | –
CN(N)c1cc(=O)[nH]c(=O)[nH]1 | 6.22 µM (inactive) | > 100 µM (inactive) | – | > 100 µM (inactive) | 43.4 µM (inactive) | > 100 µM (inactive) | – | > 100 µM (inactive) | > 100 µM (inactive) | – | > 100 µM (inactive) | – | > 100 µM (inactive) | > 100 µM (inactive) | > 100 µM (inactive) | > 100 µM (inactive) | – | > 100 | – | 51.2 µM (inactive)
Nc1ccc(S(=O)(=O)Nc2nccs2)cc1 [SULFATHIAZOLE] | – | > 100 µM (inactive) | > 100 µM (inactive) | > 100 µM (inactive) | > 100 µM (inactive) | > 100 µM (inactive) | > 100 µM (inactive) | > 100 µM (inactive) | > 100 µM (inactive) | > 100 µM (inactive) | > 100 µM (inactive) | > 100 µM (inactive) | > 100 µM (inactive) | > 100 µM (inactive) | > 100 µM (inactive) | > 100 µM (inactive) | > 100 µM (inactive) | > 100 | > 100 µM (inactive) | –
COC(=O)c1c[nH]c2nc(N3CCOCC3)nn2c1=O | > 100 µM (inactive) | > 100 µM (inactive) | > 100 µM (inactive) | > 100 µM (inactive) | > 100 µM (inactive) | > 100 µM (inactive) | – | > 100 µM (inactive) | > 100 µM (inactive) | > 100 µM (inactive) | > 100 µM (inactive) | – | > 100 µM (inactive) | > 100 µM (inactive) | – | > 100 µM (inactive) | > 100 µM (inactive) | > 100 | > 100 µM (inactive) | –
COc1ccc(C2ON(c3cccc(C)n3)CC=C2C)cc1 (stereo not drawn) | 74.1 µM (inactive) | 27.6 µM (inactive) | 45.7 µM (inactive) | 42.9 µM (inactive) | 18 µM (inactive) | 56 µM (inactive) | – | 59.3 µM (inactive) | > 100 µM (inactive) | 41.4 µM (inactive) | 30.6 µM (inactive) | – | > 100 µM (inactive) | 40.7 µM (inactive) | – | 38.8 µM (inactive) | 27.4 µM (inactive) | 26.9 | 29.4 µM (inactive) | –
